Reference: ChEMBL document CHEMBL1151608, “Unusual cytotoxicities of 5-(acylethynyl)-1-(2-hydroxyethoxy)methyluracils” (Bioorg Med Chem Lett, 1996)
pIC50: −log10 of the molar value.

tested on: CCRF-CEM; test: In vitro cytotoxic effect of compound was measured against CCRF-CEM human lymphoblastoid cells.; type: functional, cell-based; settings: not given

Structure (SMILES)	pIC50
COc1ccc(C(=O)C#Cc2cn(COCCO)c(=O)[nH]c2=O)cc1	5.80
Cc1ccc(C(=O)C#Cc2cn(COCCO)c(=O)[nH]c2=O)cc1	6.15
Cc1ccccc1C(=O)C#Cc1cn(COCCO)c(=O)[nH]c1=O	6.05
Cc1cccc(C(=O)C#Cc2cn(COCCO)c(=O)[nH]c2=O)c1	6.22

tested on: HT-29; test: In vitro cytotoxic effect of compound was measured against HT-29 tumor cells.; type: functional, cell-based; settings: Homo sapiens

Structure (SMILES)	pIC50
COc1ccc(C(=O)C#Cc2cn(COCCO)c(=O)[nH]c2=O)cc1	4.70
Cc1ccc(C(=O)C#Cc2cn(COCCO)c(=O)[nH]c2=O)cc1	5.10
Cc1ccccc1C(=O)C#Cc1cn(COCCO)c(=O)[nH]c1=O	4.60
Cc1cccc(C(=O)C#Cc2cn(COCCO)c(=O)[nH]c2=O)c1	4.85

tested on: L1210; test: In vitro cytotoxic effect of compound was measured against L1210/0 tumor cells in mouse; type: functional, cell-based; settings: not given

Structure (SMILES)	pIC50
COc1ccc(C(=O)C#Cc2cn(COCCO)c(=O)[nH]c2=O)cc1	5.82
Cc1ccc(C(=O)C#Cc2cn(COCCO)c(=O)[nH]c2=O)cc1	6.05
Cc1ccccc1C(=O)C#Cc1cn(COCCO)c(=O)[nH]c1=O	5.66
Cc1cccc(C(=O)C#Cc2cn(COCCO)c(=O)[nH]c2=O)c1	6.15
